Starred links: 1 amine or outer side, 2 acyl side, 3 side chain; linkers in the order of their positions; H or OH if unused. Non-standard residues stand in square brackets, D forms with d. Residues, ends and D or L forms follow the SMILES beside them. *: point of attachment. Dolaproine = CO[C@@H]([C@@H]1CCCN1)[C@@H](C)C(=O)O; Dil = CC[C@H](C)[C@H](NC)[C@@H](CC(=O)O)OC; PABC = O=C(OCc1ccc(N[*:1])cc1)[*:2]; X1 = O=C(CCCC(=O)*)ON1C(=O)CCC1=O; X2 = C[C@@H](N*)[C@@H](O)c1ccccc1; Cit = NC(=O)NCCC[C@H](N)C(=O)O; NMeV = CN[C@H](C(=O)O)C(C)C
Tests used:
Assay type in all cases: in vivo, Mus musculus
CTG-2539 = experiment: Champions TumorGraft NSCLC PDX efficacy, model CTG-2539
Method: Mice were implanted subcutaneously into the left flank with tumor fragments from one of the various models. […] Effects on tumor growth were evaluated by measuring percent tumor growth inhibition (% TGI), and the number of complete responders (CR), partial responders (PR), and tumor-free survivors (TFS). Tolerability was assessed by body weight loss, lethality, and clinical signs of adverse treatment-related side effects. Tumor volumes and body weights were measured twice a week.
[…] These dosing solutions were stored at −80° C. in the dark. On each day of dosing, a frozen aliquot of each test agent was thawed, stored at 2-8° C. and used for dosing.
(§1) The animals used in this study are described below: • Species: Mus musculus • Strain: Athymic Nude-Foxn1^nu (immune-compromised) • Source: Envigo (Indianapolis, Ind., USA) • Number of animals per group: 2 • Age and sex: At least 6-8 weeks of age at start of dosing, female • Weight: At least 18 grams at start of dosing • Acclimation period: 3 days
(§2) Stock mice were implanted with tumor cells from Champions TumorGraft® models CTG-0160, CTG-0170, CTG-0178, CTG-0192, CTG-0363, CTG-0808, CTG-0838, CTG-0848, CTG-1212, CTG-1502, CTG-1535, CTG-2011, CTG-2393, CTG-2539 or CTG-2540. After the tumors reached 1000-1500 mm^3, they were harvested and the tumor fragments (approximately 5×5×5 mm^3) were implanted SC in the left flank of the female study mice. Each animal was implanted with a specific passage lot and documented. Tumor growth was monitored twice a week using digital calipers and the tumor volume (TV) was calculated using the formula (0.52×[length×width^2]). When the TV reached an average volume of 150-300 mm^3, animals were matched by tumor size and assigned into Vehicle Control and treatment groups (n=2/group) and dosing was initiated on Day 0. After the initiation of dosing on Day 0, animals were weighed twice per week using a digital scale and TV was measured twice per week and also on the final day of study. The study was completed when the mean tumor volume of Vehicle Control reached 1500 mm^3 or up to Day 60, whichever occurred first.
(§3) Beginning on Day 0, animals were observed daily and weighed twice weekly using a digital scale; data including individual and mean gram weights, mean percent weight change versus Day 0 (% vD0) were recorded for each group and % vD0 plotted at study completion. […] Treatment resulting in a mean % vD0>20% and/or >10% mortality was considered above the maximum tolerated dose. Maximum mean % vD0 (weight nadir) for each treatment group was reported at study completion.
(§4) Inhibition of tumor growth was determined by calculating the percent TGI (100%×[1−(final MTV−initial MTV of a treated group)/(final MTV−initial MTV of the control group)]). Treatment started on Day 0.
(§5) Additional endpoints used to evaluate efficacy were: the number of complete responders (CR), partial responders (PR), and tumor-free survivors (TFS). PRs were considered exclusive of CRs, as were TFS.
(§6) Statistical analyses of anti-tumor efficacy were performed using one-way ANOVA followed by Dunnett's multiple comparisons test (GraphPad Prism version 8.2.0). Significant p-values=<0.05.
Animals were dosed according to the schedule on Table 7-1. The Vehicle Control reached endpoint on Day 21 and the BT5528 group reached endpoint on Day 18. The study was terminated on Day 25.

CTG-0170 = experiment: Champions TumorGraft NSCLC PDX efficacy, model CTG-0170
Method: (§7) Mice were implanted subcutaneously into the left flank with tumor fragments from one of the various models. After tumors grew to an average of 150-300 mm^3, mice were treated by IV administration Q7Dx4 (n=2) with vehicle or 3 mg/kg of BT5528. Effects on tumor growth were evaluated by measuring percent tumor growth inhibition (% TGI), and the number of complete responders (CR), partial responders (PR), and tumor-free survivors (TFS). Tolerability was assessed by body weight loss, lethality, and clinical signs of adverse treatment-related side effects. Tumor volumes and body weights were measured twice a week.
(§8) Dosing solutions of BT5528 […] were pre-formulated. These dosing solutions were stored at −80° C. in the dark. On each day of dosing, a frozen aliquot of each test agent was thawed, stored at 2-8° C. and used for dosing.
as §1, §2, §3, §4, §5, §6
Animals were dosed according to the schedule on Table 7-1. The Vehicle Control group reached endpoint of average tumor volume >1500 mm^3 on Day 14 and was removed from the study. The study was terminated on Day 28. […] Therefore, the tumor volumes on Day 11 were used for analysis of anti-tumor activity in order to include all animals.

CTG-0808 = experiment: Champions TumorGraft NSCLC PDX efficacy, model CTG-0808
Method: as §7, §8, §1, §2, §3, §4, §5, §6
Animals were dosed according to the schedule on Table 7-1. The Vehicle Control reached endpoint on Day 14 and the study was terminated on Day 28.

[1] = CTG-2539, 3 mg/kg IV Q7Dx3, Day 0-25
[2] = CTG-0170, 3 mg/kg IV Q7Dx4, Day 0-28
[3] = CTG-0808, 3 mg/kg IV Q7Dx4, Day 0-28

SMILES: CC[C@H](C)[C@@H]([C@@H](CC(=O)N1CCC[C@H]1[C@H](OC)[C@@H](C)C(=O)N[C@H](C)[C@@H](O)c1ccccc1)OC)N(C)C(=O)[C@@H](NC(=O)[C@H](C(C)C)N(C)C(=O)OCc1ccc(NC(=O)[C@H](CCCNC(N)=O)NC(=O)[C@@H](NC(=O)CCCC(=O)ON2C(=O)CCC2=O)C(C)C)cc1)C(C)C [BT5528] (X1-V[Cit][PABC][NMeV]V[Dil][Dolaproine]-X2)
- MTV (mean tumor volume) (CTG-2539; 3 mg/kg IV Q7Dx3, Day 18): 2029±594 mm^3
- TGI (CTG-2539; 3 mg/kg IV Q7Dx3, Day 18): −51%
- # CR (complete responders) (CTG-2539; [1]): 0/0/0
- # PR (partial responders) (CTG-2539; [1]): 0/0/0
- # TFS (tumor-free survivors) (CTG-2539; [1]): 0/0/0
- % TGI (CTG-2539; CTG-2539, 3 mg/kg IV Q7Dx3, Day 18): −51%
- Day 18 Tumor Volume Mean TV ± SEM (CTG-2539; CTG-2539, BT5528 3 mg/kg IV Q7Dx3, Day 18, n=2): 2029 ± 594 mm^3
- body weight and tolerability of the other animal in the group (CTG-0170; 3 mg/kg IV Q7Dx4): no body weight loss and tolerated the BT5528 well
- prior body weight loss of the animal found dead on Day 14 (CTG-0170; 3 mg/kg IV Q7Dx4): 24.8%
- MTV (mean tumor volume) (CTG-0170; 3 mg/kg IV Q7Dx4, Day 11): 268±15 mm^3
- TGI (CTG-0170; 3 mg/kg IV Q7Dx4, Day 11): 94%
- animals found dead (CTG-0170; 3 mg/kg IV Q7Dx4, n=2, cause of death unknown): one animal in the BT5528 group was found dead on Day 14
- # CR (complete responders) (CTG-0170; [2]): 0/0/0
- # PR (partial responders) (CTG-0170; [2]): 0/0/0
- # TFS (tumor-free survivors) (CTG-0170; [2]): 0/0/0
- % TGI (CTG-0170; CTG-0170, 3 mg/kg IV Q7Dx4, Day 11): 94%
- Day 11 Tumor Volume Mean TV ± SEM (CTG-0170; CTG-0170, BT5528 3 mg/kg IV Q7Dx4, Day 11, n=2): 268 ± 15 mm^3
- MTV (mean tumor volume) (CTG-0808; 3 mg/kg IV Q7Dx4, Day 14): 541±4 mm^3
- TGI (CTG-0808; 3 mg/kg IV Q7Dx4, Day 14): 76%
- # CR (complete responders) (CTG-0808; [3]): 0/0/0
- # PR (partial responders) (CTG-0808; [3]): 0/0/0
- # TFS (tumor-free survivors) (CTG-0808; [3]): 0/0/0
- % TGI (CTG-0808; CTG-0808, 3 mg/kg IV Q7Dx4, Day 14): 76%
- Day 14 Tumor Volume Mean TV ± SEM (CTG-0808; CTG-0808, BT5528 3 mg/kg IV Q7Dx4, Day 14, n=2): 541 ± 4 mm^3

Source: US20220184222A1, “BICYCLE TOXIN CONJUGATES AND USES THEREOF” (BicycleTx Limited, priority 2019, published 2022)
